Data as given in article PMC12150326 (The Journal of Organic Chemistry, 2025).
Like-named read-outs stand apart in the source and are kept apart here.

Columns and labels:
OVCAR-5 = type: cell-based, human
Method in brief: (§1)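 NCI-60 panel, 5-dose format (100 μM → 0.01 μM, tenfold steps). TGI values used for COMPARE vs. known tubulin inhibitors.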

HT29 = type: cell-based, human
Method in brief: as §1

ACHN = type: cell-based, human
Method in brief: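 Each atropisomer and iso-atropisomer was submitted to the NCI screen and run at five tenfold dilutions from 100 μM down to 0.01 μM.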

SK-OV-3 = type: cell-based, human
Method in brief: as §1

MDA-MB-468 = type: cell-based, human
Method in brief: as §1

M14 = type: cell-based, human
Method in brief: as §1

UACC-257 = type: cell-based, human
Method in brief: as §1

BT-549 = type: cell-based, human
Method in brief: as §1

HCT-116 = type: cell-based, human
Method in brief: as §1

SF-295 = type: cell-based, human
Method in brief: as §1

UO-31 = type: cell-based, human
Method in brief: as §1

CAKI-1 = type: cell-based, human
Method in brief: as §1

RXF 393 = type: cell-based, human
Method in brief: as §1

NCI-H23 = type: cell-based, human
Method in brief: as §1

U251 = type: cell-based, human
Method in brief: as §1

SF-539 = type: cell-based, human
Method in brief: as §1

NCI-H226 = type: cell-based, human
Method in brief: as §1

A498 = type: cell-based, human
Method in brief: as §1

HCT-15 = type: cell-based, human
Method in brief: as §1

MCF7 = type: cell-based, human
Method in brief: as §1

SK-MEL-28 = type: cell-based, human
Method in brief: as §1

NCI 60 cell lines = type: cell-based, human
Method in brief: as §1

bovine brain tubulin = assay: Tubulin polymerization inhibition; type: biochemical; settings: 10 μM tubulin
Method in brief: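 10 μM tubulin incubated 30 min at 37 °C in polymerization-promoting buffer (1 M NaGlutamate, 0.1 M Mes, 1 mM MgCl2, 0.5 mM GTP, pH 6.9) with 3.3 or 33 μM compound. After 100,000g spin for 8 min, polymerization taken as pelletable protein lost from supernatant.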

[1] = target: colchicine site of bovine brain tubulin; type: binding; settings: tubulin binding constant, 25 °C
Method: Inhibition of this fluorescence increase was measured and converted to K d for the test compound as described.

For `COc1cc(C)c(-c2ccc(=O)c(OC)cc2C)c(OC)c1OC` (single isomer, unassigned) [(aS)-iso-6], the Log10GI50 (OVCAR-5) was -4.38 Molar, the Log10LC50 (OVCAR-5) was > -4.00 Molar and the Log10TGI (OVCAR-5) was > -4.00 Molar. For the same molecule, the GI50 (OVCAR-5; Homo sapiens) was 41.7 µM, the Log10GI50 (OVCAR-5; […]) was -4.38 Molar and the Log10GI50 (HT29) was -4.60 Molar. The Log10LC50 (HT29) was > -4.00 Molar, the Log10TGI (HT29) was -4.03 Molar and the GI50 (HT29; Homo sapiens, HT-29) was 25.1 µM. For the same molecule, the Log10GI50 (HT29; […]) was -4.6 Molar, the Log10GI50 (ACHN) was -4.07 Molar and the Log10LC50 (ACHN) was > -4.00 Molar. The Log10TGI (ACHN) was > -4.00 Molar, the GI50 (ACHN; Homo sapiens) was 85.1 µM and the Log10GI50 (ACHN; […]) was -4.07 Molar. For the same molecule, the Log10GI50 (SK-OV-3) was -4.57 Molar, the Log10LC50 (SK-OV-3) was > -4.00 Molar and the Log10TGI (SK-OV-3) was > -4.00 Molar. For the same molecule, the GI50 (SK-OV-3; Homo sapiens) was 26.9 µM, the Log10GI50 (SK-OV-3; […]) was -4.57 Molar and the Log10GI50 (MDA-MB-468) was -4.85 Molar. The Log10LC50 (MDA-MB-468) was > -4.00 Molar, the Log10TGI (MDA-MB-468) was > -4.00 Molar and the GI50 (MDA-MB-468; Homo sapiens) was 14.1 µM. The Log10GI50 (MDA-MB-468; […]) was -4.85 Molar, the Log10GI50 (M14) was -4.76 Molar and the Log10LC50 (M14) was > -4.00 Molar. The Log10TGI (M14) was > -4.00 Molar, the GI50 (M14; Homo sapiens) was 17.4 µM and the Log10GI50 (M14; […]) was -4.76 Molar. For the same molecule, the Log10GI50 (UACC-257) was -4.15 Molar, the Log10LC50 (UACC-257) was > -4.00 Molar and the Log10TGI (UACC-257) was > -4.00 Molar. It also gave a GI50 (UACC-257; Homo sapiens) of 70.8 µM, a Log10GI50 (UACC-257; […]) of -4.15 Molar and a Log10GI50 (BT-549) of -4.82 Molar. For the same molecule, the Log10LC50 (BT-549) was > -4.00 Molar, the Log10TGI (BT-549) was > -4.00 Molar and the GI50 (BT-549; Homo sapiens) was 15.1 µM. The Log10GI50 (BT-549; […]) was -4.82 Molar, the Log10GI50 (HCT-116) was -4.60 Molar and the Log10LC50 (HCT-116) was > -4.00 Molar. The Log10TGI (HCT-116) was > -4.00 Molar, the GI50 (HCT-116; Homo sapiens) was 25.1 µM and the Log10GI50 (HCT-116; […]) was -4.6 Molar. The Log10GI50 (SF-295) was -4.64 Molar, the Log10LC50 (SF-295) was > -4.00 Molar and the Log10TGI (SF-295) was > -4.00 Molar. For the same molecule, the GI50 (SF-295; Homo sapiens) was 25.7 µM, the Log10GI50 (SF-295; […]) was -4.59 Molar and the Log10GI50 (UO-31) was -4.34 Molar. The Log10LC50 (UO-31) was > -4.00 Molar, the Log10TGI (UO-31) was > -4.00 Molar and the GI50 (UO-31; Homo sapiens) was 45.7 µM. The Log10GI50 (UO-31; […]) was -4.34 Molar, the Log10GI50 (CAKI-1) was -4.71 Molar and the Log10LC50 (CAKI-1) was > -4.00 Molar. The Log10TGI (CAKI-1) was > -4.00 Molar, the GI50 (CAKI-1; Homo sapiens) was 19.5 µM and the Log10GI50 (CAKI-1; […]) was -4.71 Molar. The Log10GI50 (RXF 393) was -4.68 Molar, the Log10LC50 (RXF 393) was > -4.00 Molar and the Log10TGI (RXF 393) was -4.12 Molar. The GI50 (RXF 393; Homo sapiens) was 20.9 µM, the Log10GI50 (RXF 393; […]) was -4.68 Molar and the Log10GI50 (NCI-H23) was -4.33 Molar. The Log10LC50 (NCI-H23) was > -4.00 Molar, the Log10TGI (NCI-H23) was > -4.00 Molar and the GI50 (NCI-H23; Homo sapiens) was 46.8 µM. For the same molecule, the Log10GI50 (NCI-H23; […]) was -4.33 Molar, the Log10GI50 (U251) was -4.51 Molar and the Log10LC50 (U251) was > -4.00 Molar. The Log10TGI (U251) was > -4.00 Molar, the GI50 (U251; Homo sapiens, U-251) was 18.8 µM and the Log10GI50 (U251; […]) was -4.725 Molar. The Log10GI50 (SF-539) was -4.59 Molar, the Log10LC50 (SF-539) was > -4.00 Molar and the Log10TGI (SF-539) was > -4.00 Molar. It also gave a GI50 (SF-539; Homo sapiens) of 29.5 µM, a Log10GI50 (SF-539; […]) of -4.53 Molar and a Log10GI50 (NCI-H226) of -4.06 Molar. The Log10LC50 (NCI-H226) was > -4.00 Molar, the Log10TGI (NCI-H226) was > -4.00 Molar and the GI50 (NCI-H226; Homo sapiens) was 87.1 µM. For the same molecule, the Log10GI50 (NCI-H226; […]) was -4.06 Molar, the Log10GI50 (A498) was -4.85 Molar and the Log10LC50 (A498) was > -4.00 Molar. The Log10TGI (A498) was -4.28 Molar, the GI50 (A498; Homo sapiens) was 14.1 µM and the Log10GI50 (A498; […]) was -4.85 Molar. For the same molecule, the Log10GI50 (HCT-15) was -4.89 Molar, the Log10LC50 (HCT-15) was > -4.00 Molar and the Log10TGI (HCT-15) was > -4.00 Molar. It also gave a GI50 (HCT-15; Homo sapiens) of 12.9 µM, a Log10GI50 (HCT-15; […]) of -4.89 Molar and a Log10GI50 (MCF7) of -4.60 Molar. The Log10LC50 (MCF7) was > -4.00 Molar, the Log10TGI (MCF7) was > -4.00 Molar and the GI50 (MCF7; Homo sapiens) was 25.1 µM. The Log10GI50 (MCF7; […]) was -4.6 Molar, the Log10GI50 (SK-MEL-28) was > -4.00 Molar and the Log10LC50 (SK-MEL-28) was > -4.00 Molar. The Log10TGI (SK-MEL-28) was > -4.00 Molar, the “fold less potent than (aR)-6 in NCI-60 screen” value (NCI 60 cell lines) was “approximately 10 fold” and the selectivity range (NCI 60 cell lines; NCI-60, GI50 level) was 1.46 log units. For the same molecule, the “Log10 Range at TGI” value (NCI 60 cell lines; NCI-60 cell line selectivity) was 0.81, the GI50 (NCI 60 cell lines; NCI-60 mean) was 27 µM and the “Mean TGI” value (NCI 60 cell lines; NCI-60 mean total growth inhibition) was 91 µM. The “Delta Log10GI50” value (NCI 60 cell lines; mean graph) was 0.89, the “Delta Log10LC50” value (NCI 60 cell lines; mean graph) was 0 and the “Delta Log10TGI” value (NCI 60 cell lines; mean graph) was 0.77. The “Range Log10GI50” value (NCI 60 cell lines; mean graph) was 1.46, the “Range Log10LC50” value (NCI 60 cell lines; mean graph) was 0.0 and the “Range Log10TGI” value (NCI 60 cell lines; mean graph) was 0.81. For the same molecule, the “_MID Log10GI50” value (NCI 60 cell lines; mean graph midpoint) was -4.57 Molar, the “_MID Log10LC50” value (NCI 60 cell lines; mean graph midpoint) was -4.0 Molar and the “_MID Log10TGI” value (NCI 60 cell lines; mean graph midpoint) was -4.04 Molar. For the same molecule, the “Polymerization Inhibition (%) 3.3 μM” value (bovine brain tubulin; 3.3 μM compound) was 0%, the “Polymerization Inhibition (%) 33 μM” value (bovine brain tubulin; 33 μM compound) was 0% and the Kd [1] was “nb”.
